According to PubChem BioAssay (NCI):
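48-hour exposure; five concentrations; linearly interpolated endpoints. At the TGI there is no net growth.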

Tests used:
Test in all cases: inhibition of tumour cell growth, NCI panel, 48 h
786-0 renal = system: 786-0 renal
A549 NSCLC = system: A549 NSCLC
ACHN renal = system: ACHN renal
CAKI-1 renal = system: CAKI-1 renal
CCRF-CEM leukemia = system: CCRF-CEM leukemia
COLO 205 colon = system: COLO 205 colon
DU-145 prostate = system: DU-145 prostate
EKVX NSCLC = system: EKVX NSCLC
HCC-2998 colon = system: HCC-2998 colon
HCT-116 colon = system: HCT-116 colon
HCT-15 colon = system: HCT-15 colon
HL-60(TB) leukemia = system: HL-60(TB) leukemia
HOP-62 NSCLC = system: HOP-62 NSCLC
HOP-92 NSCLC = system: HOP-92 NSCLC
HS 578T breast = system: HS 578T breast
HT29 colon = system: HT29 colon
IGROV1 ovarian = system: IGROV1 ovarian
K-562 leukemia = system: K-562 leukemia
KM12 colon = system: KM12 colon
LOX IMVI melanoma = system: LOX IMVI melanoma
M14 melanoma = system: M14 melanoma
MALME-3M melanoma = system: MALME-3M melanoma
MCF7 breast = system: MCF7 breast
MDA-MB-231 breast = system: MDA-MB-231 breast
MDA-MB-435 = system: MDA-MB-435
MDA-N = system: MDA-N
MOLT-4 leukemia = system: MOLT-4 leukemia
NCI-H226 lung = system: NCI-H226 lung
NCI-H23 lung = system: NCI-H23 lung
NCI-H460 lung = system: NCI-H460 lung
NCI-H522 lung = system: NCI-H522 lung
NCI/ADR-RES ovarian = system: NCI/ADR-RES ovarian
OVCAR-3 ovarian = system: OVCAR-3 ovarian
OVCAR-4 ovarian = system: OVCAR-4 ovarian
OVCAR-5 ovarian = system: OVCAR-5 ovarian
OVCAR-8 ovarian = system: OVCAR-8 ovarian
PC-3 prostate = system: PC-3 prostate
RPMI-8226 leukemia = system: RPMI-8226 leukemia
SF-268 CNS = system: SF-268 CNS
SF-295 CNS = system: SF-295 CNS
SF-539 CNS = system: SF-539 CNS
SK-MEL-2 melanoma = system: SK-MEL-2 melanoma
SK-MEL-28 melanoma = system: SK-MEL-28 melanoma
SK-MEL-5 melanoma = system: SK-MEL-5 melanoma
SN12C renal = system: SN12C renal
SNB-19 CNS = system: SNB-19 CNS
SNB-75 CNS = system: SNB-75 CNS
SR leukemia = system: SR leukemia
SW-620 colon = system: SW-620 colon
T-47D breast = system: T-47D breast
TK-10 renal = system: TK-10 renal
U251 CNS = system: U251 CNS
UACC-257 melanoma = system: UACC-257 melanoma
UO-31 renal = system: UO-31 renal
A498 renal = system: A498 renal
RXF 393 renal = system: RXF 393 renal
SK-OV-3 ovarian = system: SK-OV-3 ovarian
UACC-62 melanoma = system: UACC-62 melanoma
BT-549 breast = system: BT-549 breast

In the case of `COc1ccc2c(c1)c(CC(=O)O)c(C)n2C(=O)c1ccc(Cl)cc1`, the TGI (786-0 renal) is reported as over 100 µM, the TGI (A549 NSCLC) is reported as over 100 µM and the TGI (ACHN renal) is reported as over 100 µM. The TGI (CAKI-1 renal) was over 100 µM, the TGI (CCRF-CEM leukemia) was over 100 µM and the TGI (COLO 205 colon) was over 100 µM. The TGI (DU-145 prostate) was over 100 µM, the TGI (EKVX NSCLC) was over 100 µM and the TGI (HCC-2998 colon) was over 100 µM. The TGI (HCT-116 colon) was over 100 µM, the TGI (HCT-15 colon) was over 100 µM and the TGI (HL-60(TB) leukemia) was over 100 µM. The TGI (HOP-62 NSCLC) was over 100 µM, the TGI (HOP-92 NSCLC) was over 100 µM and the TGI (HS 578T breast) was over 100 µM. It also gave a TGI (HT29 colon) of over 100 µM, a TGI (IGROV1 ovarian) of over 100 µM and a TGI (K-562 leukemia) of over 100 µM. It also gave a TGI (KM12 colon) of over 100 µM, a TGI (LOX IMVI melanoma) of over 100 µM and a TGI (M14 melanoma) of over 100 µM. It also gave a TGI (MALME-3M melanoma) of over 100 µM, a TGI (MCF7 breast) of over 100 µM and a TGI (MDA-MB-231 breast) of over 100 µM. For the same compound, the TGI (MDA-MB-435) was over 100 µM, the TGI (MDA-N) was over 100 µM and the TGI (MOLT-4 leukemia) was over 100 µM. The TGI (NCI-H226 lung) was over 100 µM, the TGI (NCI-H23 lung) was over 100 µM and the TGI (NCI-H460 lung) was over 100 µM. The TGI (NCI-H522 lung) was over 100 µM, the TGI (NCI/ADR-RES ovarian) was over 100 µM and the TGI (OVCAR-3 ovarian) was over 100 µM. The TGI (OVCAR-4 ovarian) was over 100 µM, the TGI (OVCAR-5 ovarian) was over 100 µM and the TGI (OVCAR-8 ovarian) was over 100 µM. The TGI (PC-3 prostate) was over 100 µM, the TGI (RPMI-8226 leukemia) was over 100 µM and the TGI (SF-268 CNS) was over 100 µM. For the same compound, the TGI (SF-295 CNS) was over 100 µM, the TGI (SF-539 CNS) was over 100 µM and the TGI (SK-MEL-2 melanoma) was over 100 µM. For the same compound, the TGI (SK-MEL-28 melanoma) was over 100 µM, the TGI (SK-MEL-5 melanoma) was over 100 µM and the TGI (SN12C renal) was over 100 µM. The TGI (SNB-19 CNS) was over 100 µM, the TGI (SNB-75 CNS) was over 100 µM and the TGI (SR leukemia) was over 100 µM. For the same compound, the TGI (SW-620 colon) was over 100 µM, the TGI (T-47D breast) was over 100 µM and the TGI (TK-10 renal) was over 100 µM. For the same compound, the TGI (U251 CNS) was over 100 µM, the TGI (UACC-257 melanoma) was over 100 µM and the TGI (UO-31 renal) was over 100 µM.
With `COC(=O)C(CSSC[C@H](N/C(C)=C/C(C)=O)C(=O)OC)N/C(C)=C/C(C)=O` (stereo not given in full) the TGI (786-0 renal) was over 100 µM, the TGI (A498 renal) was over 100 µM and the TGI (A549 NSCLC) was over 100 µM. The TGI (ACHN renal) was 17.1 µM, the TGI (CAKI-1 renal) was 55.4 µM and the TGI (CCRF-CEM leukemia) was 71.5 µM. For the same compound, the TGI (COLO 205 colon) was over 100 µM, the TGI (DU-145 prostate) was 87.5 µM and the TGI (EKVX NSCLC) was 41.4 µM. The TGI (HCT-116 colon) was over 100 µM, the TGI (HL-60(TB) leukemia) was over 100 µM and the TGI (HOP-62 NSCLC) was over 100 µM. For the same compound, the TGI (HOP-92 NSCLC) was over 100 µM, the TGI (HS 578T breast) was 52.9 µM and the TGI (HT29 colon) was over 100 µM. The TGI (IGROV1 ovarian) was over 100 µM, the TGI (K-562 leukemia) was over 100 µM and the TGI (KM12 colon) was over 100 µM. For the same compound, the TGI (LOX IMVI melanoma) was 39.7 µM, the TGI (M14 melanoma) was over 100 µM and the TGI (MALME-3M melanoma) was 68.6 µM. It also gave a TGI (MCF7 breast) of 88.6 µM, a TGI (MDA-MB-231 breast) of over 100 µM and a TGI (MDA-MB-435) of over 100 µM. The TGI (MDA-N) was over 100 µM, the TGI (MOLT-4 leukemia) was over 100 µM and the TGI (NCI-H226 lung) was over 100 µM. For the same compound, the TGI (NCI-H23 lung) was over 100 µM, the TGI (NCI-H460 lung) was over 100 µM and the TGI (NCI-H522 lung) was 30 µM. It also gave a TGI (NCI/ADR-RES ovarian) of over 100 µM, a TGI (OVCAR-3 ovarian) of 88.9 µM and a TGI (OVCAR-4 ovarian) of over 100 µM. For the same compound, the TGI (OVCAR-5 ovarian) was 39.2 µM, the TGI (OVCAR-8 ovarian) was 0.0686 µM and the TGI (PC-3 prostate) was over 100 µM. For the same compound, the TGI (RPMI-8226 leukemia) was 63.5 µM, the TGI (RXF 393 renal) was 52.7 µM and the TGI (SF-268 CNS) was over 100 µM. It also gave a TGI (SF-295 CNS) of over 100 µM, a TGI (SF-539 CNS) of over 100 µM and a TGI (SK-MEL-2 melanoma) of over 100 µM. The TGI (SK-MEL-28 melanoma) was over 100 µM, the TGI (SK-MEL-5 melanoma) was over 100 µM and the TGI (SK-OV-3 ovarian) was over 100 µM. For the same compound, the TGI (SN12C renal) was over 100 µM, the TGI (SNB-19 CNS) was over 100 µM and the TGI (SNB-75 CNS) was over 100 µM. The TGI (SW-620 colon) was over 100 µM, the TGI (T-47D breast) was 58 µM and the TGI (TK-10 renal) was 39.1 µM. The TGI (U251 CNS) was over 100 µM, the TGI (UACC-257 melanoma) was over 100 µM and the TGI (UACC-62 melanoma) was over 100 µM. For the same compound, the TGI (UO-31 renal) was over 100 µM.
`CC[N+]1(C)CCC(O)(c2ccc(Cl)c(Cl)c2)C(C(=O)c2ccc(Cl)c(Cl)c2)C1` (stereo not given) was tested, and the TGI (786-0 renal) was over 10 µM, the TGI (A498 renal) was over 10 µM and the TGI (A549 NSCLC) was over 10 µM. It also gave a TGI (ACHN renal) of over 10 µM, a TGI (BT-549 breast) of over 10 µM and a TGI (CAKI-1 renal) of over 10 µM. For the same compound, the TGI (CCRF-CEM leukemia) was 5.98 µM, the TGI (COLO 205 colon) was over 10 µM and the TGI (DU-145 prostate) was over 10 µM. It also gave a TGI (EKVX NSCLC) of over 10 µM, a TGI (HCC-2998 colon) of over 10 µM and a TGI (HCT-116 colon) of over 10 µM. It also gave a TGI (HCT-15 colon) of over 10 µM, a TGI (HL-60(TB) leukemia) of over 10 µM and a TGI (HOP-62 NSCLC) of over 10 µM. The TGI (HOP-92 NSCLC) was over 10 µM, the TGI (HS 578T breast) was over 10 µM and the TGI (HT29 colon) was over 10 µM. For the same compound, the TGI (IGROV1 ovarian) was over 10 µM, the TGI (K-562 leukemia) was over 10 µM and the TGI (KM12 colon) was over 10 µM. The TGI (LOX IMVI melanoma) was over 10 µM, the TGI (M14 melanoma) was over 10 µM and the TGI (MALME-3M melanoma) was over 10 µM. For the same compound, the TGI (MCF7 breast) was over 10 µM, the TGI (MDA-N) was over 10 µM and the TGI (MOLT-4 leukemia) was over 10 µM. The TGI (NCI-H226 lung) was over 10 µM, the TGI (NCI-H23 lung) was over 10 µM and the TGI (NCI-H460 lung) was over 10 µM. It also gave a TGI (NCI-H522 lung) of 7.44 µM, a TGI (NCI/ADR-RES ovarian) of over 10 µM and a TGI (OVCAR-3 ovarian) of over 10 µM. For the same compound, the TGI (OVCAR-4 ovarian) was over 10 µM, the TGI (OVCAR-5 ovarian) was over 10 µM and the TGI (OVCAR-8 ovarian) was over 10 µM. For the same compound, the TGI (PC-3 prostate) was over 10 µM, the TGI (RPMI-8226 leukemia) was over 10 µM and the TGI (RXF 393 renal) was over 10 µM. It also gave a TGI (SF-268 CNS) of over 10 µM, a TGI (SF-295 CNS) of over 10 µM and a TGI (SF-539 CNS) of over 10 µM. The TGI (SK-MEL-2 melanoma) was over 10 µM, the TGI (SK-MEL-28 melanoma) was over 10 µM and the TGI (SK-MEL-5 melanoma) was over 10 µM. For the same compound, the TGI (SK-OV-3 ovarian) was over 10 µM, the TGI (SN12C renal) was over 10 µM and the TGI (SNB-19 CNS) was over 10 µM. For the same compound, the TGI (SNB-75 CNS) was over 10 µM, the TGI (SR leukemia) was over 10 µM and the TGI (SW-620 colon) was over 10 µM. It also gave a TGI (T-47D breast) of over 10 µM, a TGI (TK-10 renal) of over 10 µM and a TGI (U251 CNS) of over 10 µM. For the same compound, the TGI (UACC-257 melanoma) was over 10 µM and the TGI (UO-31 renal) was over 10 µM.
